Measurements taken from patent US20130022645A1, “PHARMACEUTICAL FORMULATIONS OF BISPHOSPHONATE WITH ENHANCED ORAL BIOAVAILABILITY” (DONG-A PHARM. CO., LTD., priority 2011, published 2013).
“Also recorded” adds a separate entry of the source.

Key:
[1] = In vitro inhibitory activity of phytic acid and EDTA against complexation of bisphosphonate with calcium (residual risedronate in solution by HPLC); assay type: physicochemical; details: for Inhibition of calcium-risedronate complexation: Tables 2 to 4, FIGS. 1 to 3
Protocol: Herein, in vitro tests in which after bisphosphonate and a chelating agent were simultaneously added to a solution containing a predetermined amount of calcium ions, correlation between time and residual bisphosphonate in the solution was determined were performed as explained in the following Reference Examples.
Various 50 mL solutions containing 50 mg, 10 mg and 5 mg of calcium in combination with 50 mg and 100 mg of EDTA, or […] as a chelating agent were prepared and used respectively in Reference Examples 1 to 15.
The mechanism in which a chelating agent facilitates the absorption of bisphosphonate can be explained as the degree to which the chelating inhibits bisphosphonate's activity of reacting with minerals (calcium, magnesium, etc.) in the gastrointestinal tract to form insoluble complexes. Thus, in vitro tests for assaying the inhibitory activity of phytic acid or EDTA against the complexation of bisphosphonate in calcium-containing solutions were conducted in Reference Test Example 1.
In a container with a cap, 25 mL of each of the solutions prepared in Reference Example 1 to 15 was placed, followed by agitation at 100 rpm for 120 min in an agitation bath maintained at 37° C. Approximately 1 mL of each of the solutions was taken at time points (immediately after preparation, and 15, 30, 60, 90 and 120 min after agitation) and allowed to pass through 0.45 μm PVDF membrane filters to remove precipitates. Residual resedronate in the solutions was quantitatively analyzed by HPLC.

[2] = system: intestinal mucosa; details: rabbits; cited from earlier work

Row | Compound | Inhibition of calcium-risedronate complexation [1] | Effect on intestinal mucosa [2] | Inhibitory activity against complexation compared with EDTA ([1]; in vitro tests) | Amount of phytic acid relative to EDTA needed for the same inhibition of calcium-risedronate complexation ([1]; in vitro, Reference Examples 6 to 10)
1 | O=C(O)CN(CCN(CC(=O)O)CC(=O)O)CC(=O)O [EDTA] | inhibit calcium-risedronate complexation in a dose-dependent manner | irritate the intestinal mucosa |  | 
2 | O=P(O)(O)O[C@H]1[C@H](OP(=O)(O)O)[C@@H](OP(=O)(O)O)[C@H](OP(=O)(O)O)[C@@H](OP(=O)(O)O)[C@H]1OP(=O)(O)O [phytic acid, inositol hexakisphosphate] | inhibit calcium-risedronate complexation in a dose-dependent manner |  | poorer in inhibitory activity against complexation than was EDTA | at least twice the amount of EDTA; also recorded: twice as large as that of EDTA
